Like-named read-outs stand apart in the source and are kept apart here.
Columns and labels:
[1] = Pharmacokinetics after intravenous administration of test compounds; assay type: in vivo, rat; conditions: for in vivo PK, rat i.v. CLblood: male Wistar rats, total blood clearance; for in vivo PK, rat i.v. Fmax, calc: Fmax,calc=[1−CLblood/Qh]*100, Qh 4.2 L per h per kg
Procedure: Pharmacokinetics after Intravenous Administration of Test Compounds: Male Wistar rats (Harlan Laboratories) are anesthetized and a catheter is inserted into the jugular vein of the rat. The next day, a defined dose of the test compound is administered as solution by injection into the tail vein. Blood samples are collected through the jugular catheter during the next 24 h (8-11 time points). Blood is centrifuged in heparin-tubes, and each plasma sample is treated with acetonitrile for protein precipitation. After centrifugation, the test compound in the supernatant is quantified using an LC-MS/MS method. The determined plasma concentrations are used for the calculation of pharmacokinetic parameters, such as AUC (area under the plasma concentration vs. time curve), Vss (volume of distribution under steady-state conditions), Cmax (highest test compound concentration observed in plasma following administration), t1/2 (half-life) and CL (total clearance of the test compound from the plasma). For the calculation of the blood clearance, the blood to plasma partitioning is determined by incubation of the test compound in blood of rats. After separation of the plasma by centrifugation, the concentration in the plasma is determined by an LC-MS/MS method. Under the assumption that the test compound is completely absorbed, the theoretically maximum achievable bioavailability Fmax,calc is calculated by the equation Fmax,calc=[1−CLblood/Qh]*100, wherein CLblood is the total blood clearance and Qh is the hepatic blood flow in rat of 4.2 L per h per kg.

[2] = Pharmacokinetics after peroral administration of test compounds; assay type: in vivo, rat; conditions: for in vivo PK, rat p.o. F / in vivo PK, rat p.o. AUCnorm: male Wistar rats; for in vivo PK, rat p.o. F: bioavailability; for in vivo PK, rat p.o. AUCnorm: dose and body weight-normalized AUC; for Fraction absorbed fabs, calc: rat p.o., fabs,calc=[F/Fmax,calc]*100
Procedure: Pharmacokinetics after Peroral Administration of Test Compounds: Male Wistar rats (Harlan Laboratories) are anesthetized and a catheter is inserted into the jugular vein of the rat. The next day, a defined dose of the test compound is administered perorally. Blood samples are collected through the jugular catheter during the next 24 h (8-11 time points). Blood is centrifuged in heparin-tubes, and each plasma sample is treated with acetonitrile for protein precipitation. After centrifugation, the test compound in the supernatant is quantified using an LC-MS/MS method. The determined plasma concentrations are used for the determination of pharmacokinetic parameters, such as AUC (area under the plasma concentration vs. time curve), Cmax (highest test compound concentration observed in plasma following administration), t1/2 (half-life) and F (bioavailability). The fraction of the dose absorbed (fabs,calc) is calculated by the equation fabs,calc=[F/Fmax,calc]*100, wherein F is the determined bioavailability after peroral administration and Fmax,calc is the theoretically maximum achievable bioavailability considering the determined blood clearance and assuming that the test compound is completely absorbed.

[3] = Caco-2 permeability assay; assay type: in vitro ADME; conditions: human, apical to basolateral, 2 h at 37° C.
Text: Caco-2 Permeability Assay:
The in vitro permeation of a test compound across a Caco-2 cell monolayer is a well-established assay system to predict the permeability from the gastro-intestinal tract [cf. P. Artursson and J. Karlsson: Correlation between oral drug absorption in humans and apparent drug permeability coefficients in human intestinal epithelial (Caco-2) cells, Biochem. Biophys. 175 (3), 880-885 (1991)]. The permeability of the compounds of the present invention in such Caco-2 cells was determined as described below:
Human caco-2 cells (ACC No. 169, DSMZ, German Collection of Microorganisms and Cell Cultures, Braunschweig, Germany) are seeded on 24-well insert plates and are allowed to grow for 14-16 days. For permeability studies, the test compounds are dissolved in DMSO and diluted to the final test concentration of 2 μM with transport buffer [Hanks' Buffered Salt Solution, Gibco/Invitrogen, further supplemented with glucose (final concentration 19.9 mM) and HEPES (final concentration 9.8 mM)]. For determination of the apical to basolateral permeability (PappA-B), the test compound solution is added to the apical side of the cell monolayer and transport buffer to the basolateral side of the monolayer; for determination of the basolateral to apical permeability (PappB-A), the test compound solution is added to the basolateral side of the cell monolayer and transport buffer to the apical side of the monolayer. Samples are taken from the donor compartment at the beginning of the experiment to confirm mass balance. After an incubation of 2 h at 37° C., samples are taken from both compartments. Samples are analyzed by LC-MS/MS, and the apparent permeability coefficients are calculated. Lucifer Yellow permeability is assayed for each cell monolayer to ensure cell monolayer integrity, and the permeability of Atenolol (low permeability marker) and Sulfasalazine (marker for active excretion) is determined for each batch as quality control.

[4] = target: Recombinant human c-Met protein (Homo sapiens (Human), UniProt P08581); assay: c-Met receptor tyrosine kinase activity assay (NADH read-out); assay type: biochemical; conditions: ATP 30 μM, c-Met 30 nM
Procedure: c-Met Receptor Tyrosine Kinase Activity Assay (NADH Read-Out):
Recombinant human c-Met protein (Invitrogen, Carlsbad, Calif., USA) is used. As substrate for the kinase reaction the peptide KKKSPGEYVNIEFG (JPT, Germany) is used. For the assay, 1 μL of a 51-fold concentrated solution of the test compound in DMSO is pipetted into a white 384-well microtiter plate (Greiner Bio-One, Frickenhausen, Germany). 25 μL of a solution of c-Met (final concentration 30 nM) and pyruvate kinase/lactate dehydrogenase (Roche Diagnostics, Mannheim, Germany; final concentration 8 mg/L) in assay buffer [3-(N-morpholino)propanesulfonic acid (MOPS), 50 mM, pH 7; MgCl2, 10 mM; bovine serum albumin (BSA), 0.01%; Triton X 100, 0.01%; DTT, 2 mM] are added, and the mixture is incubated for 5 min at room temperature. Then, the kinase reaction is started by the addition of 25 μL of a solution of adenosine triphosphate (ATP, final concentration 30 μM), substrate (final concentration 100 μM), nicotinamide adenine dinucleo-tide (NADH, final concentration 50 μM) and dithiothreitol (DTT, final concentration 2 mM) in assay buffer, and the resulting mixture is incubated for a reaction time of 100 min at 32° C.
Subsequently, the amount of phosphorylated substrate is evaluated by measurement of the decrease of NADH fluorescence. Therefore, the fluorescence emissions at 465 nm after excitation at 340 nm is measured in a fluorescence reader, e.g. Tecan Ultra (Tecan, Männedorf, Switzerland). The data are normalised (enzyme reaction without inhibitor=0% inhibition; all other assay components but no enzyme=100% inhibition).

[5] = Table 3, read-out: Caco-2 permeability PappA-B
[6] = Table 4, read-out: Caco-2 permeability PappA-B

Chain of Recombinant human c-Met protein (P08581 25-1390): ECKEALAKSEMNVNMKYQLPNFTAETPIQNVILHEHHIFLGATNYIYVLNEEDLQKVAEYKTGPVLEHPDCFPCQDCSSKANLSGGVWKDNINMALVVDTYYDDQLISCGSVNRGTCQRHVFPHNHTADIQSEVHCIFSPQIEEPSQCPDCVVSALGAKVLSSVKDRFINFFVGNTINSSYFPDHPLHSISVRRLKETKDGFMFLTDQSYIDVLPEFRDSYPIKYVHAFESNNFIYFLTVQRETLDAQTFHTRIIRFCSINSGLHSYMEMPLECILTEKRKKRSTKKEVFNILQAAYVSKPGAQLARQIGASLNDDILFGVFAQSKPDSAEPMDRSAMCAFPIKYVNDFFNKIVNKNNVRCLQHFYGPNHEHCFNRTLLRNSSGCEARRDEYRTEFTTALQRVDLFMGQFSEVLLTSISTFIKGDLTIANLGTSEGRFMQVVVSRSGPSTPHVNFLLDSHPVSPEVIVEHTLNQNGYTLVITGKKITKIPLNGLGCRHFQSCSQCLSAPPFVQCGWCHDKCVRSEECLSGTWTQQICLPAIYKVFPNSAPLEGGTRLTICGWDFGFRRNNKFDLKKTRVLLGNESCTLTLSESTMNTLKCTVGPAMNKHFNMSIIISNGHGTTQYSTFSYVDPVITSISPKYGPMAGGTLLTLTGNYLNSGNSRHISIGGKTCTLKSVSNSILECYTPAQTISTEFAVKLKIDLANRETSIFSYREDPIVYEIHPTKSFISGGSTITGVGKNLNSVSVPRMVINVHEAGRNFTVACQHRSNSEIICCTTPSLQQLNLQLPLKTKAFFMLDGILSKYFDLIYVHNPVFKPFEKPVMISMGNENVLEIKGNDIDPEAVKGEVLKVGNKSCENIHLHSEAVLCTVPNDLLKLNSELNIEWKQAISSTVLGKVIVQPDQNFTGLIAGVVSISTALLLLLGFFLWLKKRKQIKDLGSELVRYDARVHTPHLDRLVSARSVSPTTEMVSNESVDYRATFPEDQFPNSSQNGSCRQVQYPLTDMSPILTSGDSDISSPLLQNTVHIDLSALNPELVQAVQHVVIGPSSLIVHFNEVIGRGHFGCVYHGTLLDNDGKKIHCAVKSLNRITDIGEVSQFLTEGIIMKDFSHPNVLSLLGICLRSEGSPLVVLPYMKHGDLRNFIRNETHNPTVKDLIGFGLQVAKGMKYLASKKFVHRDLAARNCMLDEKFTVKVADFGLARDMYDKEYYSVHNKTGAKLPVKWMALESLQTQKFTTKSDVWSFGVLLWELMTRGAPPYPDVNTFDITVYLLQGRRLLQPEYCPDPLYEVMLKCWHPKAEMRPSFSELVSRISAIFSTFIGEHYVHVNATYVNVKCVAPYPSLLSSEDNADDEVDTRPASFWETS

SMILES | in vivo PK, rat i.v. CLblood [1] [mL/min/kg] | in vivo PK, rat i.v. Fmax, calc [1] [%] | in vivo PK, rat p.o. F [2] [%] | in vivo PK, rat p.o. AUCnorm [2] [kg·h/L] | Fraction absorbed fabs, calc [2] [%] | Papp at 2 h, 2 μM [3, 5] [×10⁻⁶ cm/s] | IC50 [4] [nM] | Papp at 2 h, 2 μM [3, 6] [×10⁻⁶ cm/s]
N#CC1=C(C(F)F)NC(C(F)F)=C(C#N)C1c1cc2cn[nH]c2cc1F [Example 15, 2,6-Bis(difluoromethyl)-4-(6-fluoro-1H-indazol-5-yl)-1,4-dihydropyridine-3,5-dicarbonitrile] | 3.83 | 95 | 63 | 3.87 | 66 | 16.9 |  | 
CC1=C(C#N)C(c2cc3c(C)n[nH]c3cc2F)C(C#N)=C(C(F)F)N1 (single isomer, unassigned) [Example 8, 2-(Difluoromethyl)-4-(6-fluoro-3-methyl-1H-indazol-5-yl)-6-methyl-1,4-dihydropyridine-3,5-dicarbonitrile] |  |  |  |  |  |  | 9 | 
CCc1n[nH]c2ccc(C3C(C#N)=C(C(F)F)NC(C(F)F)=C3C#N)cc12 [Example 25, 2,6-Bis(difluoromethyl)-4-(3-ethyl-1H-indazol-5-yl)-1,4-dihydropyridine-3,5-dicarbonitrile] |  |  |  |  |  |  |  | 29
CC1=C(C#N)C(c2ccc3[nH]ncc3c2)C(C#N)=C(C(F)(F)F)N1 (racemic) [Example 20, rac-4-(1H-Indazol-5-yl)-2-methyl-6-(trifluoromethyl)-1,4-dihydropyridine-3,5-dicarbonitrile] |  |  |  |  |  |  | 27 | 20
CC1=C(C#N)C(c2ccc3[nH]nc(C)c3c2)C(C#N)=C(C(F)(F)F)N1 (single isomer, unassigned) [Example 5] |  |  |  |  |  |  | 12 | 
CC1=C(C#N)C(c2cc3cn[nH]c3cc2F)C(C#N)=C(C(F)(F)F)N1 (racemic) [Example 19, rac-4-(6-Fluoro-1H-indazol-5-yl)-2-methyl-6-(trifluoromethyl)-1,4-dihydropyridine-3,5-dicarbonitrile] | 36.5 | 48 | 40 | 0.33 | 84 | 17.6 |  | 
Cc1n[nH]c2ccc(C3C(C#N)=C(C(F)(F)F)NC(C(F)(F)F)=C3C#N)cc12 [Example 26, 4-(3-Methyl-1H-indazol-5-yl)-2,6-bis(trifluoromethyl)-1,4-dihydropyridine-3,5-dicarbonitrile] |  |  |  |  |  |  |  | 34.8
CC1=C(C#N)C(c2ccc3[nH]nc(C)c3c2)C(C#N)=C(C(F)(F)F)N1C (single isomer, unassigned) [Example 43, 1,2-Dimethyl-4-(3-methyl-1H-indazol-5-yl)-6-(trifluoromethyl)-1,4-dihydropyridine-3,5-dicarbonitrile] |  |  |  |  |  |  | 9 | 
CC1=C(C#N)C(c2cc3cn[nH]c3cc2F)C(C#N)=C(C(F)F)N1 (racemic) [Example 16, rac-2-(Difluoromethyl)-4-(6-fluoro-1H-indazol-5-yl)-6-methyl-1,4-dihydropyridine-3,5-dicarbonitrile] |  |  |  |  |  |  |  | 22.6
CC1=C(C#N)C(c2cc3cn[nH]c3cc2F)C(C#N)=C(C(F)F)N1 (single isomer, unassigned) [Example 17, 2-(Difluoromethyl)-4-(6-fluoro-1H-indazol-5-yl)-6-methyl-1,4-dihydropyridine-3,5-dicarbonitrile] |  |  |  |  |  |  | 11 | 
Cc1n[nH]c2ccc(C3C(C#N)=C(C(F)F)NC(C(F)F)=C3C#N)cc12 [Example 13, 2,6-Bis(difluoromethyl)-4-(3-methyl-1H-indazol-5-yl)-1,4-dihydropyridine-3,5-dicarbonitrile] | 2.83 | 96 | 70 | 6.16 | 73 | 39.3 |  | 
CC1=C(C#N)C(c2cc3c(C)n[nH]c3cc2F)C(C#N)=C(C(F)(F)F)N1 (single isomer, unassigned) [Example 12, 4-(6-Fluoro-3-methyl-1H-indazol-5-yl)-2-methyl-6-(trifluoromethyl)-1,4-dihydropyridine-3,5-dicarbonitrile] | 13.2 | 81 | 48 | 1.1 | 59 | 18.7 |  | 
CC1=C(C#N)C(c2cc3c(C)n[nH]c3cc2F)C(C#N)=C(C(F)F)N1 (racemic) [Example 7, rac-2-(Difluoromethyl)-4-(6-fluoro-3-methyl-1H-indazol-5-yl)-6-methyl-1,4-dihydropyridine-3,5-dicarbonitrile] | 26.7 | 62 | 68 | 0.69 | 109 | 22 |  | 
CC1=C(C#N)C(c2ccc3[nH]nc(C)c3c2)C(C#N)=C(C(F)(F)F)N1C (single isomer, unassigned) [Example 44, 1,2-Dimethyl-4-(3-methyl-1H-indazol-5-yl)-6-(trifluoromethyl)-1,4-dihydropyridine-3,5-dicarbonitrile] |  |  |  |  |  |  | 8 | 
CC1=C(C#N)C(c2ccc3[nH]nc(C)c3c2)C(C#N)=C(C(F)(F)F)N1C (racemic) [Example 42, rac-1,2-Dimethyl-4-(3-methyl-1H-indazol-5-yl)-6-(trifluoromethyl)-1,4-dihydropyridine-3,5-dicarbonitrile] |  |  |  |  |  |  |  | 38.8
